Assay results from patent EP0604355B1, “Akyl Substituted heterocyclic compounds” (N[…]/S, priority 1992, dated 1994).
Where a name gives a salt, the structure may show the parent alone.

Experiments:
[1] = system: haloperidol-induced catalepsy; experiment: animal or person; conditions: Rattus norvegicus, read-out: Minimum effective dose (peroral administration)
Description: The principle behind the haloperidol catalepsy test relates to the fact that the drug haloperidol (Serenase®) induces a receptor blockade of post synaptic dopamine receptors within the dopamine innervated corpus striatum of the rat brain. Following the blockade of active dopamine neurotransmission of the striatum a state of rigid immobility is induced, during which the rat can be placed in various totally abnormal immobile postures involving the forelegs and the whole body.
The day before testing, the rats weighing 200-250 g are housed 2 and 2 together in standard macrolon cages.
The testing for the immobile catalepsy syndrome includes 4 tests performed in the following consecutive order: • 1) a vertical wire netting (40x40 cm high).The meshes (openings) of the nettings are approximately 1x2cm. • 2) a horizontal bar 9 cm above the floor • 3) a 9 cm high block (bar) • 4) a 3 cm high block (cork)
The rats were scored for the immobile cataleptic syndrome every 15 min in all 4 tests starting 15 min after the haloperidol injection. The intensity of catalepsy was tested during 10 sec in all tests and evaluated according to a criteria of 10 sec of total immobility for a score of 2.
The rat was placed in the middle of the vertical wire netting, then on the horizontal bar in an extended position with support by both the forelegs on the bar. […]

[2] = biological target: reuptake of dopamine in synaptosomes of rat forebrain (Rattus norvegicus, UniProt P23977); experiment: biochemical
Protocol: Fresh whole forebrain (at 0-4°C) from male Wistar rats (150-200 g) is homogenized in a glass homogenizer with a Teflon pestle in 20 x volumes 0.32M sucrose. The homogenate is centrifuged at 1000 x g (∼2900 rpm) for 10 min. The pellet is discarded and the supernatant is used for uptake assays.
The samples are thoroughly mixed and incubated 10 min at 37°C followed by 2 min at 0°C. After incubation the samples are poured directly onto Whatman GF/C glass fibre filters under suction and immediately washed with 2 x 5 ml ice-cold 0.9% saline (NaCl) buffer. To the filter is added 3 ml of scintillation fluid, and the amount of radioactivity on the filters is determined by conventional liquid scintillation counting.

[3] = system: dopamine releasing properties; experiment: dopamine releasing properties (no method described); conditions: in contrast to Win 35,428 and cocaine

Chain of reuptake of dopamine in synaptosomes of rat forebrain (P23977 whole entry): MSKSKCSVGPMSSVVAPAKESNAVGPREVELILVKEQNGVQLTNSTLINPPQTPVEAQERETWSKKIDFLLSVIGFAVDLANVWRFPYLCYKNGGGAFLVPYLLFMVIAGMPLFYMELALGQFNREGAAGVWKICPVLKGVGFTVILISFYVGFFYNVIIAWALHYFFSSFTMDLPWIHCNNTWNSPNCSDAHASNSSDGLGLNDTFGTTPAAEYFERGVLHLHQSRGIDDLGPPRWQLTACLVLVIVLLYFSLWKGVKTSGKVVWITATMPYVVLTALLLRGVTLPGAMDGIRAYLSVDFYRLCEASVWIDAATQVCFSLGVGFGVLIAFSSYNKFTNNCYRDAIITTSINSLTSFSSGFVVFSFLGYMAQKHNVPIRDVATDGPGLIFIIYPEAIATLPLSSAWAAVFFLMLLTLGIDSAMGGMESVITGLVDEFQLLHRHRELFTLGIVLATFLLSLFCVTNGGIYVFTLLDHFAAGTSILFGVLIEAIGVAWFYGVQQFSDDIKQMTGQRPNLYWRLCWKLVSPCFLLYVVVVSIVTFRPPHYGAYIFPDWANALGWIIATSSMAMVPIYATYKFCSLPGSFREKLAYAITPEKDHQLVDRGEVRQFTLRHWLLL

## Cc1noc([C@@H]2[C@@H](c3ccc(Cl)cc3)C[C@@H]3CC[C@H]2N3C)n1.Cl [(1R,2R,3S)-2-(3-Methyl-1,2,4-oxadiazol-5-yl)-3-(4-chlorophenyl)-tropane, hydrochloride]
[1]
  minimal effective dose: > 1 mg/kg

## CN1[C@H]2CC[C@@H]1[C@H](c1nc(-c3ccccc3)no1)[C@@H](c1ccc(Cl)cc1)C2 [(1R,2R,3S)-2-(3-Phenyl1,2,4-oxadiazol-5-yl)-3-(4-chlorophenyl)-tropane, hydrochloride]
[2]
  IC50: 0.33 µM

## CN1[C@H]2CC[C@@H]1[C@H](c1nc(-c3ccccc3)no1)[C@@H](c1ccc3ccccc3c1)C2 [(1R,2R,3S)-2-(3-Phenyl-1,2,4-oxadiazol-5-yl)-3-(2-naphthyl)tropane, hydrochloride]
[2]
  IC50: 0.54 µM

## Cc1ccc([C@H]2C[C@@H]3CC[C@H]([C@@H]2c2nc(-c4ccccc4)no2)N3C)cc1 [(1R,2R,3S)-2-(3-Phenyl-1,2,4-oxadiazol-5-yl)-3-(4-methylphenyl)-tropane, hydrochloride]
[2]
  IC50: 0.96 µM

## COC(=O)[C@@H]1[C@@H](c2ccc(F)cc2)C[C@@H]2CC[C@H]1N2C [trans isomer of Win 35,428, (1R,2R,3S)-2-carbomethoxy-3-(4-fluorophenyl)tropane]
[3]
  dopamine releasing properties: essentially free of dopamine releasing properties
